Data: patent US20260015350A1, “AZAQUINAZOLINE PAN-KRAS INHIBITORS” (Mirati Therapeutics, Inc., priority 2022, published 2026)

Assays:
KRas^G12R = target: T1, KRas^G12R (Homo sapiens, UniProt P01116, G12R); assay: KRas binding assay (TR-FRET tracer displacement), KRas G12R
T1 construct: Biotinylated KRas (corresponding to amino acids 1-169, produced at Accelegan Inc.); biotin (biotinylated); purchased Accelegan Inc

[1] = system: KRas-mediated phosphorylation of ERK in H460 cells; assay: Inhibition of KRas-mediated phosphorylation of ERK (Cisbio HTRF pERK), H460 cells; type: cell-based; conditions: Homo sapiens, NCI-H460, HTRF pERK
How it was run: (§1)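 Min control wells contained 0.2 uM Trametinib, while test compounds ran as 10 doses (3-fold, top 10 uM; 0.8% DMSO final) on cells for 3 hrs. After 40 mins lysis at 4° C, lysates were probed with HTRF antibodies for 2 hrs at room temperature.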

[2] = system: KRas-mediated phosphorylation of ERK in H727 cells; assay: Inhibition of KRas-mediated phosphorylation of ERK (Cisbio HTRF pERK), H727 cells; type: cell-based; conditions: Homo sapiens, NCI-H727, H727 cells; HTRF pERK
How it was run: as §1

[3] = system: KRas-mediated phosphorylation of ERK in HCT116 cells; assay: Inhibition of KRas-mediated phosphorylation of ERK (Cisbio HTRF pERK), HCT116 cells; type: cell-based; conditions: Homo sapiens, HCT-116, HTRF pERK
How it was run: (§2)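 Each compound was tested at 10 concentrations, threefold apart with 10 uM the highest, for 3 hrs on 6,000 seeded cells; final DMSO was 0.8% and Trametinib (0.2 uM) served as Min control. Lysed cells were analysed for pERK by HTRF.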

[4] = system: KRas-mediated phosphorylation of ERK in A549 cells; assay: Inhibition of KRas-mediated phosphorylation of ERK (Cisbio HTRF pERK), A549 cells; type: cell-based; conditions: Homo sapiens, HTRF pERK
How it was run: as §2

[5] = system: KRas-mediated phosphorylation of ERK in MKN1 cells; assay: Inhibition of KRas-mediated phosphorylation of ERK (Cisbio HTRF pERK), MKN1 cells; type: cell-based; conditions: Homo sapiens, MKN-1
How it was run: (§3)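 Overnight culture at 37° C./5% CO2 in RPMI containing 10% FBS, seeded 6,000 cells per well, preceded the assay. A covered 4-hour incubation at room temperature followed, then HTRF signal for phosphorylated ERK was measured.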

KRas^G12D = target: T2, KRas^G12D (Homo sapiens, UniProt P01116, G12D); assay: KRas binding assay (TR-FRET tracer displacement), KRas G12D
T2 construct: Biotinylated KRas (corresponding to amino acids 1-169, produced at Accelegan Inc.); biotin (biotinylated); purchased Accelegan Inc
T2 sequence (P01116 1-169 isoform P01116-2 G12D): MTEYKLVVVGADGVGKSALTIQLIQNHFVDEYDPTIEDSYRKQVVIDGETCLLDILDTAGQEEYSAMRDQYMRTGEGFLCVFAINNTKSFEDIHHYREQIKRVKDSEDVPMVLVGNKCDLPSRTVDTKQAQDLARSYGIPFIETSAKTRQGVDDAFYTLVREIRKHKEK

[6] = system: KRas-mediated phosphorylation of ERK in PSN1 cells; assay: Inhibition of KRas-mediated phosphorylation of ERK (Cisbio HTRF pERK), PSN1 cells; type: cell-based; conditions: Homo sapiens
How it was run: as §3

[7] = system: KRas-mediated phosphorylation of ERK in AsPC-1 cells; assay: Inhibition of KRas-mediated phosphorylation of ERK (Cisbio HTRF pERK), AsPC-1 cells; type: cell-based; conditions: Homo sapiens, ASPC1, AsPC-1 cells; HTRF pERK
How it was run: as §1

KRas^G12V = target: T3, KRas^G12V (Homo sapiens, UniProt P01116, G12V); assay: KRas binding assay (TR-FRET tracer displacement), KRas G12V
T3 construct: Biotinylated KRas (corresponding to amino acids 1-169, produced at Accelegan Inc.); biotin (biotinylated); purchased Accelegan Inc
T3 sequence (P01116 1-169 isoform P01116-2 G12V): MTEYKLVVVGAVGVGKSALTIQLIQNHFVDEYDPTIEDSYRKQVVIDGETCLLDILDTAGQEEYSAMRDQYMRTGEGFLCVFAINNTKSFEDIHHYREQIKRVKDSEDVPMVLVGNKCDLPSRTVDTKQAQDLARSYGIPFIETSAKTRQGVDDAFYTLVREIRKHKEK

[8] = system: KRas-mediated phosphorylation of ERK in H358 cells; assay: Inhibition of KRas-mediated phosphorylation of ERK (Cisbio HTRF pERK), H358 cells; type: cell-based; conditions: Homo sapiens, NCI-H358, HTRF pERK
How it was run: as §1

T1 sequence (P01116 1-169 isoform P01116-2 G12R): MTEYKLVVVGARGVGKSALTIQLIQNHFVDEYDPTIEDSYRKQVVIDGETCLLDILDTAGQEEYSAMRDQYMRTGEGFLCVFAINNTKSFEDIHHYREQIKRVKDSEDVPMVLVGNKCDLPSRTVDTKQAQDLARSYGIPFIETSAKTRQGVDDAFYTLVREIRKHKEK

IC50 (KRas^G12R) | IC50 [1] | IC50 [2] | IC50 [3] | IC50 [4] | IC50 [5] | IC50 (KRas^G12D) | IC50 [6] | IC50 [7] | IC50 (KRas^G12V) | IC50 [8] | SMILES
< 2 nM | 173 nM | 592 nM | 254 nM | 1340 nM | 1 nM | 4 nM | > 10000 nM | 1450 nM | < 2 nM | 45 nM | CCc1c(F)ccc2cc(O)cc(-c3ncc4c(N5CC6CCC(C5)C6C(N)=O)nc(OC[C@@]56CCCN5C[C@H](F)C6)nc4c3F)c12 (stereo partly drawn) [Example 861, 3-(7-(8-ethyl-7-fluoro-3-hydroxynaphthalen-1-yl)-8-fluoro-2-(((2R,7aS)-2-fluorohexahydro-1H-pyrrolizin-7a-yl)methoxy)pyrido[4,3-d]pyrimidin-4-yl)-3-azabicyclo[3.2.1]octane-8-carboxamide]
95 nM | 1110 nM | 3700 nM | 2870 nM | 7210 nM | 196 nM | 311 nM | > 10000 nM | 6210 nM | 60 nM | 1680 nM | CCc1c(F)ccc2cc(O)cc(-c3ncc4c(N5CC6CCC(C5)C6C)nc(OC[C@@]56CCCN5C[C@H](F)C6)nc4c3F)c12 (stereo partly drawn) [Example 862, 5-ethyl-6-fluoro-4-(8-fluoro-2-(((2R,7aS)-2-fluorohexahydro-1H-pyrrolizin-7a-yl)methoxy)-4-((1R,5S,8S)-8-methyl-3-azabicyclo[3.2.1]octan-3-yl)pyrido[4,3-d]pyrimidin-7-yl)naphthalen-2-ol]
34 nM | 1990 nM | 4000 nM | 3890 nM | > 10000 nM | 208 nM | 145 nM | > 10000 nM | > 10000 nM | 32 nM | 1360 nM | CCc1c(F)ccc2cc(O)cc(-c3ncc4c(N5CC6CCC(C5)C6CC(=O)NC)nc(OC[C@@]56CCCN5C[C@H](F)C6)nc4c3F)c12 (stereo partly drawn) [Example 863, 2-((1R,5S,8S)-3-(7-(8-ethyl-7-fluoro-3-hydroxynaphthalen-1-yl)-8-fluoro-2-(((2R,7aS)-2-fluorotetrahydro-1H-pyrrolizin-7a(5H)-yl)methoxy)pyrido[4,3-d]pyrimidin-4-yl)-3-azabicyclo[3.2.1]octan-8-yl)-N-methylacetamide]
< 2 nM | 22 nM | 24 nM | 53 nM | 61 nM | 21 nM | < 2 nM | 3420 nM | 17 nM | < 2 nM | 12 nM | Oc1cc(-c2ncc3c(N4CCOCC5(CCO5)C4)nc(OC[C@@]45CCCN4C[C@H](F)C5)nc3c2F)c2c(Cl)c(F)ccc2c1 (stereo partly drawn) [Example 868, 5-chloro-6-fluoro-4-(8-fluoro-2-(((2R,7aS)-2-fluorotetrahydro-1H-pyrrolizin-7a(5H)-yl)methoxy)-4-(1,6-dioxa-9-azaspiro[3.6]decan-9-yl)pyrido[4,3-d]pyrimidin-7-yl)naphthalen-2-ol]
26 nM | 271 nM | 4520 nM | 1200 nM | 2760 nM | 290 nM | 210 nM | > 10000 nM | 3600 nM | 116 nM | 922 nM | CCc1c(F)ccc2cc(O)cc(-c3ncc4c(N5CC6CCC(C5)C6(F)F)nc(OC[C@@]56CCCN5C[C@H](F)C6)nc4c3F)c12 [Example 869, 4-(4-(8,8-difluoro-3-azabicyclo[3.2.1]octan-3-yl)-8-fluoro-2-(((2R,7aS)-2-fluorotetrahydro-1H-pyrrolizin-7a(5H)-yl)methoxy)pyrido[4,3-d]pyrimidin-7-yl)-5-ethyl-6-fluoronaphthalen-2-ol]
< 2 nM | 25 nM | 98 nM | 49 nM | 66 nM | 18 nM | < 2 nM | 1300 nM | 51 nM | < 2 nM | 10 nM | CCc1c(F)ccc2cc(O)cc(-c3ncc4c(N5CCC[C@@](C)(O)C5)nc(OC[C@@]56CCCN5[C@H](COCC5CC5)CC6)nc4c3F)c12 [Example 870, (R)-1-(2-(((3S,7aS)-3-((cyclopropylmethoxy)methyl)tetrahydro-1H-pyrrolizin-7a(5H)-yl)methoxy)-7-(8-ethyl-7-fluoro-3-hydroxynaphthalen-1-yl)-8-fluoropyrido[4,3-d]pyrimidin-4-yl)-3-methylpiperidin-3-ol]
12 nM | 194 nM | 408 nM | 325 nM | 135 nM | 198 nM | 7 nM | > 10000 nM | 93 nM | 7 nM | 149 nM | CCCCN(CCCC)C(=O)OC[C@@H]1CC[C@@]2(COc3nc(N4CCC[C@@](C)(O)C4)c4cnc(-c5cc(O)cc6ccc(F)c(CC)c56)c(F)c4n3)CCCN12 [Example 873, ((3S,7aR)-7a-(((7-(8-ethyl-7-fluoro-3-hydroxynaphthalen-1-yl)-8-fluoro-4-((R)-3-hydroxy-3-methylpiperidin-1-yl)pyrido[4,3-d]pyrimidin-2-yl)oxy)methyl)hexahydro-1H-pyrrolizin-3-yl)methyl dibutylcarbamate]
3 nM | 21 nM | 81 nM | 48 nM | 22 nM | 22 nM | < 2 nM | 2070 nM | 12 nM | 2 nM | 16 nM | CCCCN(C)C(=O)OC[C@@H]1CC[C@@]2(COc3nc(N4CCC[C@@](C)(O)C4)c4cnc(-c5cc(O)cc6ccc(F)c(CC)c56)c(F)c4n3)CCCN12 [Example 874, ((3S,7aR)-7a-(((7-(8-ethyl-7-fluoro-3-hydroxynaphthalen-1-yl)-8-fluoro-4-((R)-3-hydroxy-3-methylpiperidin-1-yl)pyrido[4,3-d]pyrimidin-2-yl)oxy)methyl)hexahydro-1H-pyrrolizin-3-yl)methyl butyl(methyl)carbamate]
5 nM | 86 nM | 189 nM | 176 nM | 92 nM | 104 nM | 3 nM | 2150 nM | 79 nM | 3 nM | 40 nM | CCc1c(F)ccc2cc(O)cc(-c3ncc4c(N5CCC[C@@](C)(O)C5)nc(OC[C@]56CCCN5[C@@H](COC)CC6)nc4c3F)c12 [Example 877, (R)-1-(7-(8-ethyl-7-fluoro-3-hydroxynaphthalen-1-yl)-8-fluoro-2-(((3R,7aR)-3-(methoxymethyl)tetrahydro-1H-pyrrolizin-7a(5H)-yl)methoxy)pyrido[4,3-d]pyrimidin-4-yl)-3-methylpiperidin-3-ol]
6 nM | 53 nM | 83 nM | 186 nM | 125 nM | 16 nM | 3 nM | 4000 nM | 43 nM | 3 nM | 52 nM | CCc1c(F)ccc2cc(O)cc(-c3ncc4c(N5CCC[C@@](C)(O)C5)nc(OC[C@@]56CCCN5[C@@H](CF)CC6)nc4c3F)c12 [Example 878, (R)-1-(7-(8-ethyl-7-fluoro-3-hydroxynaphthalen-1-yl)-8-fluoro-2-(((3R,7aS)-3-(fluoromethyl)tetrahydro-1H-pyrrolizin-7a(5H)-yl)methoxy)pyrido[4,3-d]pyrimidin-4-yl)-3-methylpiperidin-3-ol]
3 nM | 25 nM | 35 nM | 65 nM | 30 nM | 1 nM | 2 nM | 889 nM | 12 nM | < 2 nM | 14 nM | CCc1c(F)ccc2cc(O)cc(-c3ncc4c(N5CCC[C@@](C)(O)C5)nc(OC[C@]56CCCN5[C@H](CF)CC6)nc4c3F)c12 [Example 879, (R)-1-(7-(8-ethyl-7-fluoro-3-hydroxynaphthalen-1-yl)-8-fluoro-2-(((3S,7aR)-3-(fluoromethyl)tetrahydro-1H-pyrrolizin-7a(5H)-yl)methoxy)pyrido[4,3-d]pyrimidin-4-yl)-3-methylpiperidin-3-ol]
